Several values for one entry are separate records, joined by “and”; a condition that tells them apart may be missing. Equal entries are not always repeated. Inconclusive results and toxic doses are left out.
Tested on: L1210 leukemia ip in BDF1 mice, survival T/C
Test: NCI In Vivo Anticancer Drug Screen. Data for tumor model L1210 Leukemia (intraperitoneal) in B6D2F1 (BDF1) mice
Conditions: endpoint: mean survival time, higher = longer survival
Outline: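 Tumor was transplanted into mice, which were then dosed with test compound or vehicle alone. Survival was recorded for each group, and the treated figure was expressed relative to the control figure.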

[1] = dose: 100.0 mg/kg/injection, schedule: Q01DX001 (ip), vehicle: saline
[2] = dose: 100.0 mg/kg/injection, schedule: Q04DX003 (ip), vehicle: saline with Tween-80
[3] = dose: 200.0 mg/kg/injection, schedule: Q01DX001 (ip), vehicle: saline
[4] = dose: 200.0 mg/kg/injection, schedule: Q04DX003 (ip), vehicle: saline with Tween-80
[5] = dose: 100.0 mg/kg/injection, schedule: Q04DX003 (ip), vehicle: saline
[6] = dose: 200.0 mg/kg/injection, schedule: Q04DX003 (ip), vehicle: saline
[7] = dose: 400.0 mg/kg/injection, schedule: Q04DX003 (ip), vehicle: saline
[8] = dose: 400.0 mg/kg/injection, schedule: Q04DX003 (ip), vehicle: saline with Tween-80

Cc1ccc(Cl)cc1NC(=O)N1C(C)CCCC1C (stereo not given)
T/C (dose: 25.0 mg/kg/injection, schedule: Q01DX009 (ip), vehicle: saline with Tween-80): 94 % of control and 110 % of control | T/C (dose: 50.0 mg/kg/injection, schedule: Q01DX009 (ip), vehicle: saline with Tween-80): 106 % of control and 108 % of control | T/C (dose: 50.0 mg/kg/injection, schedule: Q04DX003 (ip), vehicle: saline with Tween-80): 100 % of control | T/C (dose: 100.0 mg/kg/injection, schedule: Q01DX001 (ip), vehicle: saline with Tween-80): 101 % of control and 118 % of control | T/C [1]: 102 % of control | T/C (dose: 100.0 mg/kg/injection, schedule: Q04DX002 (ip), vehicle: saline with Tween-80): 95 % of control and 89 % of control | T/C [2]: 104 % of control | T/C (dose: 200.0 mg/kg/injection, schedule: Q01DX001 (ip), vehicle: saline with Tween-80): 101 % of control and 110 % of control | T/C [3]: 108 % of control | T/C (dose: 200.0 mg/kg/injection, schedule: Q04DX002 (ip), vehicle: saline with Tween-80): 93 % of control and 106 % of control | T/C [4]: 109 % of control | T/C (dose: 400.0 mg/kg/injection, schedule: Q01DX001 (ip), vehicle: saline with Tween-80): 101 % of control | T/C (dose: 400.0 mg/kg/injection, schedule: Q04DX002 (ip), vehicle: saline with Tween-80): 102 % of control

O=C(NCSC1=NCCS1)NCSC1=NCCS1
T/C (dose: 100.0 mg/kg/injection, schedule: Q01DX009 (ip), vehicle: Klucel (hydroxypropylcellulose) (HPC)): 107 % of control | T/C [5]: 97 % of control | T/C (dose: 200.0 mg/kg/injection, schedule: Q01DX009 (ip), vehicle: Klucel (hydroxypropylcellulose) (HPC)): 92 % of control | T/C [6]: 114 % of control | T/C (dose: 400.0 mg/kg/injection, schedule: Q01DX009 (ip), vehicle: Klucel (hydroxypropylcellulose) (HPC)): 96 % of control | T/C [7]: 97 % of control

C#CC1(OC(C)=O)CCCCC1
T/C [1]: 102 % of control | T/C [2]: 105 % of control | T/C [3]: 95 % of control | T/C [4]: 98 % of control | T/C (dose: 400.0 mg/kg/injection, schedule: Q01DX001 (ip), vehicle: saline): 100 % of control | T/C [8]: 93 % of control

O=C(NC(=O)C1CC1)C1CC1
T/C (dose: 100.0 mg/kg/injection, schedule: Q01DX009 (ip), vehicle: saline with Tween-80): 94 % of control | T/C [2]: 106 % of control | T/C (dose: 200.0 mg/kg/injection, schedule: Q01DX009 (ip), vehicle: saline with Tween-80): 100 % of control | T/C [4]: 87 % of control | T/C (dose: 400.0 mg/kg/injection, schedule: Q01DX009 (ip), vehicle: saline with Tween-80): 100 % of control | T/C [8]: 93 % of control

CS(=O)(=O)OCc1c(O)c2c(c(O)c1COS(C)(=O)=O)C(=O)C=CC2=O
T/C (dose: 25.0 mg/kg/injection, schedule: Q01DX009 (ip), vehicle: water): 94 % of control | T/C (dose: 50.0 mg/kg/injection, schedule: Q01DX009 (ip), vehicle: water): 97 % of control

CCC(C(=O)O)C(O)(CC(=O)O)C(=O)O (stereo not given)
T/C [5]: 98 % of control | T/C [6]: 101 % of control | T/C [7]: 95 % of control

CCOC(=O)/C(C#N)=C\c1cccs1
T/C (dose: 100.0 mg/kg/injection, schedule: Q04DX003 (ip), vehicle: Klucel (hydroxypropylcellulose) (HPC)): 103 % of control

Nc1nc(N)c2cc(CNc3ccc(C(=O)NC(CC(=O)O)C(=O)O)cc3)ccc2n1 (stereo not given)
T/C (dose: 0.07 mg/kg/injection, schedule: Q01DX009 (ip), vehicle: saline): 97 % of control and 100 % of control | T/C (dose: 0.14 mg/kg/injection, schedule: Q01DX009 (ip), vehicle: saline): 110 % of control and 120 % of control | T/C (dose: 0.25 mg/kg/injection, schedule: Q01DX009 (sc), vehicle: saline): 110 % of control | T/C (dose: 0.5 mg/kg/injection, schedule: Q01DX009 (sc), vehicle: saline): 120 % of control | T/C (dose: 0.56 mg/kg/injection, schedule: Q01DX009 (ip), vehicle: saline): 164 % of control | T/C (dose: 0.67 mg/kg/injection, schedule: Q01DX009 (ip), vehicle: saline): 157 % of control and 189 % of control | T/C (dose: 1.0 mg/kg/injection, schedule: Q01DX009 (ip), vehicle: saline): 178 % of control | T/C (dose: 1.0 mg/kg/injection, schedule: Q01DX009 (sc), vehicle: saline): 158 % of control | T/C (dose: 1.13 mg/kg/injection, schedule: Q01DX009 (ip), vehicle: saline): 153 % of control and 193 % of control and 195 % of control | T/C (dose: 1.25 mg/kg/injection, schedule: Q01DX009 (ip), vehicle: saline): 173 % of control and 177 % of control | T/C (dose: 2.0 mg/kg/injection, schedule: Q01DX001 (ip), vehicle: saline): 118 % of control | T/C (dose: 2.0 mg/kg/injection, schedule: Q01DX001 (iv), vehicle: saline): 117 % of control | T/C (dose: 2.0 mg/kg/injection, schedule: Q01DX001 (sc), vehicle: saline): 112 % of control | T/C (dose: 2.0 mg/kg/injection, schedule: Q01DX009 (ip), vehicle: saline): 154 % of control | T/C (dose: 2.0 mg/kg/injection, schedule: Q01DX009 (oral), vehicle: saline): 110 % of control | T/C (dose: 2.0 mg/kg/injection, schedule: Q01DX009 (sc), vehicle: saline): 188 % of control | T/C (dose: 2.0 mg/kg/injection, schedule: Q08DX002 (ip), vehicle: saline): 118 % of control | T/C (dose: 2.0 mg/kg/injection, schedule: Q## X008 (ip), vehicle: saline): 123 % of control | T/C (dose: 2.0 mg/kg/injection, schedule: Q## X024 (ip), vehicle: saline): 154 % of control | T/C (dose: 2.25 mg/kg/injection, schedule: Q01DX009 (ip), vehicle: saline): 174 % of control and 177 % of control | T/C (dose: 4.0 mg/kg/injection, schedule: Q01DX001 (ip), vehicle: saline): 119 % of control | T/C (dose: 4.0 mg/kg/injection, schedule: Q01DX001 (iv), vehicle: saline): 119 % of control | T/C (dose: 4.0 mg/kg/injection, schedule: Q01DX001 (sc), vehicle: saline): 119 % of control | T/C (dose: 4.0 mg/kg/injection, schedule: Q01DX009 (oral), vehicle: saline): 110 % of control | T/C (dose: 4.0 mg/kg/injection, schedule: Q01DX009 (sc), vehicle: saline): 120 % of control | T/C (dose: 4.0 mg/kg/injection, schedule: Q## X003 (ip), vehicle: saline): 152 % of control | T/C (dose: 4.0 mg/kg/injection, schedule: Q## X024 (ip), vehicle: saline): 185 % of control | T/C (dose: 4.5 mg/kg/injection, schedule: Q01DX009 (ip), vehicle: saline): 95 % of control and 117 % of control | T/C (dose: 5.0 mg/kg/injection, schedule: Q01DX009 (ip), vehicle: saline): 96 % of control and 101 % of control and 91 % of control | T/C (dose: 8.0 mg/kg/injection, schedule: Q01DX001 (ip), vehicle: saline): 123 % of control | T/C (dose: 8.0 mg/kg/injection, schedule: Q01DX001 (iv), vehicle: saline): 118 % of control | T/C (dose: 8.0 mg/kg/injection, schedule: Q01DX009 (oral), vehicle: saline): 109 % of control | T/C (dose: 8.0 mg/kg/injection, schedule: Q03HX016 (ip), vehicle: saline): 150 % of control | T/C (dose: 8.0 mg/kg/injection, schedule: Q## X003 (ip), vehicle: saline): 158 % of control | T/C (dose: 8.0 mg/kg/injection, schedule: Q## X024 (ip), vehicle: saline): 194 % of control | T/C (dose: 9.0 mg/kg/injection, schedule: Q01DX009 (ip), vehicle: saline): 87 % of control and 89 % of control | T/C (dose: 10.0 mg/kg/injection, schedule: Q01DX009 (ip), vehicle: saline): 89 % of control and 91 % of control | T/C (dose: 16.0 mg/kg/injection, schedule: Q01DX001 (iv), vehicle: saline): 122 % of control | T/C (dose: 16.0 mg/kg/injection, schedule: Q01DX001 (oral), vehicle: saline): 102 % of control | T/C (dose: 16.0 mg/kg/injection, schedule: Q01DX009 (oral), vehicle: saline): 112 % of control | T/C (dose: 16.0 mg/kg/injection, schedule: Q03HX016 (ip), vehicle: saline): 165 % of control | T/C (dose: 16.0 mg/kg/injection, schedule: Q08DX002 (ip), vehicle: saline): 169 % of control | T/C (dose: 16.0 mg/kg/injection, schedule: Q## X024 (ip), vehicle: saline): 206 % of control | T/C (dose: 20.0 mg/kg/injection, schedule: Q01DX001 (ip), vehicle: saline): 108 % of control | T/C (dose: 32.0 mg/kg/injection, schedule: Q01DX001 (ip), vehicle: saline): 152 % of control | T/C (dose: 32.0 mg/kg/injection, schedule: Q01DX001 (oral), vehicle: saline): 103 % of control | T/C (dose: 32.0 mg/kg/injection, schedule: Q03HX016 (ip), vehicle: saline): 197 % of control | T/C (dose: 32.0 mg/kg/injection, schedule: Q08DX002 (ip), vehicle: saline): 159 % of control | T/C (dose: 32.0 mg/kg/injection, schedule: Q## X008 (ip), vehicle: saline): 150 % of control | T/C (dose: 64.0 mg/kg/injection, schedule: Q01DX001 (oral), vehicle: saline): 101 % of control | T/C (dose: 128.0 mg/kg/injection, schedule: Q01DX001 (oral), vehicle: saline): 101 % of control

O=c1[nH]c(=O)n(C2OC(CO)C(O)C2O)c2scnc12 (stereo not given)
T/C (dose: 100.0 mg/kg/injection, schedule: Q01DX005 (ip), vehicle: saline): 98 % of control | T/C (dose: 200.0 mg/kg/injection, schedule: Q01DX005 (ip), vehicle: saline): 100 % of control

Reference: PubChem BioAssay AID248 (DTP/NCI, 2004)
